We go through 21 compounds from patent publication US20250152585A1, “PHARMACEUTICAL COMPOUND” (Duke Street Bio Limited, priority 2022, published 2025).

Where two headings read alike, the source gives them in different places.

The target of test [1] is T1, full length N-terminally FLAG-tagged PARP1 (Homo sapiens, UniProt P09874). Description: PARP1 probe displacement HTRF assay. The conditions noted are these: for Selectivity: PARP1 over PARP2, ratio Kd (PARP2)/Kd (PARP1); for Kd: binned Kd.
In test [2] the target is T1, full length N-terminally FLAG-tagged PARP1. Description: PARP1 biochemical DELFIA assay (auto-PARylation). Also noted: recombinant full length human N-terminally FLAG-tagged PARP1.
Test [3] concerns the target T2, N-terminally FLAG-tagged PARP2 (amino acids 1-583) (Homo sapiens, UniProt Q9UGN5).
T2 construct: N-terminally FLAG-tagged PARP2 (amino acids 1-583)
Description: PARP2 probe displacement HTRF assay. In kind it is binding. The conditions noted are these: binned Kd. Here is the method:
Data analysis was performed identical as for PARP1.
Background: TR-FRET usually uses a lanthanide donor and a delayed reading to cut background.

[4] abbreviates: read-out: PARP1 HTRF, PARP1 probe displacement HTRF.
[5] abbreviates: binned IC50, PARP1 biochemical DELFIA assay.
The mark [6] stands for this setting: read-out: PARP1 HTRF, probe displacement HTRF.
The mark [7] stands for this setting: binned IC50, biochemical auto-PARylation assay.
[8] abbreviates: PARP1 HTRF, probe displacement HTRF.
Where [9] appears, read: PARP1 HTRF, PARP1 probe displacement HTRF.

T1 sequence (P09874 whole entry): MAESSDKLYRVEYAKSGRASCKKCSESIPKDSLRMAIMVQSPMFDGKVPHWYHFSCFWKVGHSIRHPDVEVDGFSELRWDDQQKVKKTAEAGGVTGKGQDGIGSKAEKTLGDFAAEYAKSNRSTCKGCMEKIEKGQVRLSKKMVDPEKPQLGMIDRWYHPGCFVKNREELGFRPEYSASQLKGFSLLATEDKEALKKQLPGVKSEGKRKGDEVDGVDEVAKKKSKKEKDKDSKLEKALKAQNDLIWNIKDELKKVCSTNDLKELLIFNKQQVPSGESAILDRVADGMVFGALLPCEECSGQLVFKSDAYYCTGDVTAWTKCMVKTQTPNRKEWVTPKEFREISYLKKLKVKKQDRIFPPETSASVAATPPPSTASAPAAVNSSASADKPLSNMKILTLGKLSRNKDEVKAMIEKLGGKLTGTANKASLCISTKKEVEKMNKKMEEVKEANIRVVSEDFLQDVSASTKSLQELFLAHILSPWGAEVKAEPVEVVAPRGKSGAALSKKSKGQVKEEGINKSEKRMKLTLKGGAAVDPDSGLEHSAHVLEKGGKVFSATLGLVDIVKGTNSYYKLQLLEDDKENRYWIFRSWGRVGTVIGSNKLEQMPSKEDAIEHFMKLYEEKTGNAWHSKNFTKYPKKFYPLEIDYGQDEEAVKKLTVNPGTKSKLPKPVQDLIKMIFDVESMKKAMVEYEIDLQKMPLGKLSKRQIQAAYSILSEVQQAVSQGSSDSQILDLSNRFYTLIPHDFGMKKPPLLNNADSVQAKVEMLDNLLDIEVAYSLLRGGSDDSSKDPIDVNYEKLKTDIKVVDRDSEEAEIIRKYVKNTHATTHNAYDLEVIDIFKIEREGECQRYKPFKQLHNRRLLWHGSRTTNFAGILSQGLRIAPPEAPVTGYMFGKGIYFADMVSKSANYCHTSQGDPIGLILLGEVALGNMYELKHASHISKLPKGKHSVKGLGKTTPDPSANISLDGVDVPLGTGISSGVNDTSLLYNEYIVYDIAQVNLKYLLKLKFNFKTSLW
T2 sequence (Q9UGN5 whole entry, the tested form may be a part): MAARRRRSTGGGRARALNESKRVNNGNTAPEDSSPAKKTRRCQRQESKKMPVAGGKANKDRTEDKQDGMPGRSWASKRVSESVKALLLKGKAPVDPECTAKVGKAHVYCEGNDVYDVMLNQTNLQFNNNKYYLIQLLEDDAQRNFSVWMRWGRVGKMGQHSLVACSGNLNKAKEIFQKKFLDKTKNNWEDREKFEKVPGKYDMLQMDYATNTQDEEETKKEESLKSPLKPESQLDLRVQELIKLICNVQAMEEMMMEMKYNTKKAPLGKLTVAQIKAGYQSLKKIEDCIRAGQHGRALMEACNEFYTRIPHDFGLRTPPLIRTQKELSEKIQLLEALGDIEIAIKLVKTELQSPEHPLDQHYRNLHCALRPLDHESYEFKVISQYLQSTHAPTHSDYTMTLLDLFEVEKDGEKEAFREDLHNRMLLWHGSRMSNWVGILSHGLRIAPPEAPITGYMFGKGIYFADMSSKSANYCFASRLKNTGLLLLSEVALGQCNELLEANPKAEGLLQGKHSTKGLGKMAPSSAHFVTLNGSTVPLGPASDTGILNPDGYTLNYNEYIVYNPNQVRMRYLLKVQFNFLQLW

The term IC50 denotes the concentration needed to halve the response being measured. Take `CNC(=O)c1ccc(N2CCC(N3CCCC(c4nc5ccccc5c(=O)[nH]4)C3)CC2)c(C)n1` (single isomer, unassigned) [Compound 131a]: the Selectivity result in test [1] (probe displacement HTRF) is “+ (+ indicates a value of 10 to less than 50)”. Further, the Kd in test [1] (setting [4]) was in the range of 100 to 1000 nM; in test [3] (PARP2 probe displacement HTRF) it was 1000 to 10000 nM. Moreover, the IC50 in test [2] (setting [5]) lay in the range of 10 to 100 nM.
For the compound `CS(=O)(=O)Nc1ccc(N2CCC(N3CCC(c4cc5ccccc5c(=O)[nH]4)C3)CC2)cn1` (single isomer, unassigned) [Compound 252b], the Selectivity result in test [1] (probe displacement HTRF) is on record as “+ (+ indicates a value of 10 to less than 50)”. Also, the Kd in test [1] (setting [6]) fell in the range of 10 to 100 nM; in test [3] (probe displacement HTRF), 100 to 1000 nM. For the same compound, the IC50 in test [2] (setting [7]) fell in the range of 10 to 100 nM.
For `CNC(=O)c1ccc(N2CCC(N3CCOC(c4nc5ccccc5c(=O)[nH]4)C3)CC2)cn1` (single isomer, unassigned) [Compound 58b], the Selectivity result in test [1] (probe displacement HTRF) was “++ (++ indicates a value of 50 to less than 100)”. The Kd in test [1] (setting [4]) is 10 to 100 nM; in test [3] (PARP2 probe displacement HTRF) it was greater than 10000 nM. The 50% inhibitory concentration (IC50) in test [2] (setting [5]) lay within 10 to 100 nM.
Regarding `CNC(=O)c1ccc(N2CCC(N3CCC(c4ccc(OC)c(=O)[nH]4)C3)CC2)cn1` (single isomer, unassigned) [Compound 148b], in test [1] (probe displacement HTRF), the Selectivity entry is listed as “− (− indicates a value of less than 10)”. Moreover, the Kd in test [1] (setting [4]) is 1000 to 10000 nM; in test [3] (PARP2 probe displacement HTRF), greater than 10000 nM. Besides, in test [2] (setting [5]), the half-maximal inhibitory concentration (IC50) lay within 1000 to 10000 nM.
In the case of `CNC(=O)c1ccc(OCCCN2CCCC(c3nc4ccccc4c(=O)[nH]3)C2)cn1` (single isomer, unassigned) [Compound 7a], the Selectivity result in test [1] (probe displacement HTRF) was “+++ (+++ indicate a value of at least 100)”. Moreover, the Kd is less than 10 nM in test [1] (setting [4]) and 100 to 1000 nM in test [3] (PARP2 probe displacement HTRF). Moreover, the concentration for half-maximal inhibition (IC50) in test [2] (setting [5]) lay in the range of 10 to 100 nM.
Take `CNC(=O)c1ccc(N2CCC(CN3CCC(c4nc5ccccc5c(=O)[nH]4)CC3)C2)cn1` (single isomer, unassigned) [Compound 50b]: the Selectivity entry in test [1] (probe displacement HTRF) is given as “+++ (+++ indicate a value of at least 100)”. Also, the Kd in test [1] (setting [4]) is 10 to 100 nM; in test [3] (PARP2 probe displacement HTRF), greater than 10000 nM. Besides, the half-maximal inhibitory concentration (IC50) in test [2] (setting [5]) fell in the range of 10 to 100 nM.
As for `CS(=O)(=O)Nc1ccc(N2CCC(N3CCC(c4nc5ccccc5c(=O)[nH]4)C3)CC2)cn1` (single isomer, unassigned) [Compound 291b], the Selectivity result in test [1] (probe displacement HTRF) was “− (− indicates a value of less than 10)”. The results for the Kd in test [1] (setting [6]) and in test [3] (probe displacement HTRF) were 100 to 1000 nM and 1000 to 10000 nM, respectively. Further, in test [2] (setting [7]), the IC50 fell in the range of 100 to 1000 nM.
As for `N#Cc1nc(C(=O)NC2CC2)ccc1N1CCC(N2CCC(c3cc4ccc(F)cc4c(=O)[nH]3)C2)CC1` (single isomer, unassigned) [Compound 397a], the Selectivity result in test [1] (probe displacement HTRF) was “+++ (+++ indicate a value of at least 100)”. The Kd in test [1] (setting [6]) was less than 10 nM; in test [3] (probe displacement HTRF) it was 100 to 1000 nM. In addition, in test [2] (setting [7]), the half-inhibitory concentration (IC50) was less than 10 nM.
`CNC(=O)c1ccc(N2CCC(N3CC4(c5nc6ncccc6c(=O)[nH]5)CC3C4)CC2)c(F)n1` [Compound 303]: the Kd was less than 10 nM in test [1] (setting [8]) and greater than 10000 nM in test [3] (probe displacement HTRF). For the same compound, in test [1] (probe displacement HTRF), the Selectivity entry was “+++ (+++ indicate a value of at least 100)”. Further, in test [2] (setting [7]), the IC50 was less than 10 nM.
`CNC(=O)c1ccc(N2CCC(N3CCC(c4cc5ccc(F)cc5c(=O)[nH]4)C3)CC2)c(C#N)n1` (single isomer, unassigned) [Compound 396a]: the Selectivity result in test [1] (probe displacement HTRF) is “+++ (+++ indicate a value of at least 100)”. Also, the Kd in test [1] (setting [6]) is less than 10 nM; in test [3] (probe displacement HTRF) it was 100 to 1000 nM. The IC50 in test [2] (setting [7]) is less than 10 nM.
As for `CNC(=O)c1ccc(N2CCC(N3CCC(c4[nH]c(=O)c5cc(F)ccc5c4F)C3)CC2)cn1` (single isomer, unassigned) [Compound 401b], the Selectivity result in test [1] (probe displacement HTRF) is “+ (+ indicates a value of 10 to less than 50)”. The Kd in test [1] (setting [6]) was less than 10 nM; in test [3] (probe displacement HTRF), 10 to 100 nM. Besides, the concentration for half-maximal inhibition (IC50) in test [2] (setting [7]) was less than 10 nM.
With `CNC(=O)c1ccc(F)c(N2CCC(N3CCCC(c4nc5ccccc5c(=O)[nH]4)C3)CC2)n1` (racemic) [Compound 95rac], the Selectivity entry in test [1] (probe displacement HTRF) is recorded as “− (− indicates a value of less than 10)”. For the same compound, the Kd in test [1] (setting [4]) and in test [3] (PARP2 probe displacement HTRF) was 1000 to 10000 nM in each case. In addition, the IC50 in test [2] (setting [5]) was in the range of 100 to 1000 nM.
With `CNC(=O)c1ccc(N2CCC(N3CCC(c4cc5ccc(F)cc5c(=O)[nH]4)C3)CC2)cn1` (racemic) [Compound 154rac, 5-(4-(3-(7-fluoro-1-oxo-1,2-dihydroisoquinolin-3-yl)pyrrolidin-1-yl)piperidin-1-yl)-N-methylpicolinamide], the Kd in test [1] (setting [9]) is less than 10 nM; in test [3] (PARP2 probe displacement HTRF), 10 to 100 nM. Further, in test [1] (probe displacement HTRF), the Selectivity result is reported as “+ (+ indicates a value of 10 to less than 50)”. In test [2] (setting [5]), the IC50 was less than 10 nM.
As to `CNC(=O)c1ncc(N2CCC(N3CC4(c5nc6ccc(F)cc6c(=O)[nH]5)CC3C4)CC2)cc1F` [Compound 379], the values for the Kd in test [1] (setting [8]) and in test [3] (probe displacement HTRF) were less than 10 nM and 100 to 1000 nM, respectively. In addition, the Selectivity result in test [1] (probe displacement HTRF) is reported as “+++ (+++ indicate a value of at least 100)”. Also, the concentration for half-maximal inhibition (IC50) in test [2] (setting [7]) is less than 10 nM.
Regarding `CCc1ccc(C2CCN(C3CCN(c4ccc(C(=O)NC)c(F)c4)CC3)C2)[nH]c1=O` (racemic) [Compound 282rac], the Selectivity result in test [1] (probe displacement HTRF) is given as “+ (+ indicates a value of 10 to less than 50)”. For the same compound, the Kd in test [1] (setting [6]) lay in the range of 10 to 100 nM; in test [3] (probe displacement HTRF), 100 to 1000 nM. Besides, in test [2] (setting [7]), the IC50 is 10 to 100 nM.
Turning to `CNC(=O)c1ccc(N2CCC(N3CCC(c4nc5sc6c(c5c(=O)[nH]4)CCC6)C3)CC2)cn1` (single isomer, unassigned) [Compound 189a], in test [1] (probe displacement HTRF), the Selectivity result was “− (− indicates a value of less than 10)”. Also, the figures for the Kd in test [1] (setting [4]) and in test [3] (PARP2 probe displacement HTRF) were 10 to 100 nM and 100 to 1000 nM, respectively. For the same compound, the IC50 in test [2] (setting [5]) fell in the range of 10 to 100 nM.
For the compound `CNC(=O)c1ccc(OCCN2CCC(c3nc4ccccc4c(=O)[nH]3)CC2)cn1` [Compound 63], the Kd fell in the range of 10 to 100 nM in test [1] (setting [9]) and 1000 to 10000 nM in test [3] (PARP2 probe displacement HTRF). In test [1] (probe displacement HTRF), the Selectivity entry is on record as “++ (++ indicates a value of 50 to less than 100)”. In addition, the 50% inhibitory concentration (IC50) in test [2] (setting [5]) is less than 10 nM.
On to `NC(=O)c1ccc(N2CCC(N3CCC(c4nc5ccccc5c(=O)[nH]4)C3)CC2)cn1` (single isomer, unassigned) [Compound 123a], for which the Selectivity result in test [1] (probe displacement HTRF) is listed as “+ (+ indicates a value of 10 to less than 50)”. Besides, the Kd was 10 to 100 nM in test [1] (setting [4]) and 100 to 1000 nM in test [3] (PARP2 probe displacement HTRF). Also, the IC50 in test [2] (setting [5]) was 10 to 100 nM.
Take `CCNC(=O)c1ccc(N2CCC(N3CCC(c4nc5ccccc5c(=O)[nH]4)C3)CC2)cn1` (single isomer, unassigned) [Compound 111a]: in test [1] (probe displacement HTRF), the Selectivity result is “+ (+ indicates a value of 10 to less than 50)”. Further, the results for the Kd in test [1] (setting [4]) and in test [3] (PARP2 probe displacement HTRF) were 10 to 100 nM and 100 to 1000 nM, respectively. Besides, the concentration for half-maximal inhibition (IC50) in test [2] (setting [5]) fell in the range of 10 to 100 nM.
Turning to `O=C(NC1CC1)c1ccc(N2CCC(N3CCC(c4cc5ncc(F)cc5c(=O)[nH]4)C3)CC2)cn1` (single isomer, unassigned) [Compound 372b], the Selectivity entry in test [1] (probe displacement HTRF) is listed as “+++ (+++ indicate a value of at least 100)”. The figures for the Kd in test [1] (setting [6]) and in test [3] (probe displacement HTRF) were less than 10 nM and 10 to 100 nM, respectively. Also, the IC50 in test [2] (setting [7]) was less than 10 nM.
As to `CNC1(c2ccc(N3CCC(N4CCC(c5nc6ccccc6c(=O)[nH]5)C4)CC3)cn2)CC1` (racemic) [Compound 412rac], in test [1] (probe displacement HTRF), the Selectivity entry is recorded as “+ (+ indicates a value of 10 to less than 50)”. The Kd in test [1] (setting [6]) was 100 to 1000 nM; in test [3] (probe displacement HTRF) it was greater than 10000 nM. For the same compound, the IC50 in test [2] (setting [7]) fell in the range of 100 to 1000 nM.
